From patent US11034718B2, “C-3 novel triterpenone with C-17 reverse amide derivatives as HIV inhibitors” (HETERO LABS LIMITED, priority 2015, dated 2021)
Read-outs that look alike come from different tables or passages of the source.

Experiments:
Assay type in all cases: cell-based
[1] = test system: HIV-1 pNL4-3 WT; test: Antiviral activity against pNL4-3/WT strain in MT4 cells (p24 estimation); details: Human immunodeficiency virus 1, MT4, 96 h, read-out: pNL4-3 WT IC50
Outline: (§1)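 MT4 cells infected with HIV-1 pNL4-3 WT or V7A (defined TCID50, 1.5 h, 37° C), plated at 3×10^4 cells/well with test compound, final DMSO ≤1%. After 4 days' culture, p24 in supernatant aliquots measured by kit.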

[2] = test system: HIV-1 strain 92HT599; test: Antiviral activity against HIV-1 strain 92HT599 in MT2 cells (p24 estimation); details: HIV-1 92HT599, ~96 hours
Outline: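 Percent inhibition versus vehicle controls came from p24 quantified in supernatant aliquots. These were taken after ~96 h incubation of compound (DMSO ≤1%) with MT2 cells infected at 10 TCID50/30,000 cells.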

[3] = test system: HIV-1 pNL4-3 V7A; test: Antiviral activity against pNL4-3/V7A strain in MT4 cells (p24 estimation); details: Human immunodeficiency virus 1, MT4, 96 h, read-out: pNL4-3 V7A IC50
Outline: as §1

[4] = Human immunodeficiency virus 1, 0% serum binding assay, read-out: IC50 0% serum
[5] = Human immunodeficiency virus 1, 40% serum binding assay, read-out: IC50 40% serum

What does the source list for `CC(C)C1=C2[C@H]3CC[C@@H]4[C@@]5(C)CC[C@H](OC(=O)[C@H]6C[C@@H](C(=O)O)C6(C)C)C(C)(C)[C@@H]5CC[C@@]4(C)[C@]3(C)CC[C@@]2(NC(=O)C(C)(C)NC(=O)c2cnn3cccnc23)CC1=O` [Example 54, (1R,3S)-3-((((3aR,5aR,5bR,7aR,9S,11aR,11bR,13aS)-1-isopropyl-5a,5b,8,8,11a-pentamethyl-3a-(2-methyl-2-(pyrazolo[1,5-a]pyrimidine-3-carboxamido)propanamido)-2-oxo-3,3a,4,5,5a,5b,6,7,7a,8,9,10,11,11a,11b,12,13,13a-octadecahydro-2H-cyclopenta[a]chrysen-9-yl)oxy)carbonyl)-2,2-dimethylcyclobutane-1-carboxylic acid]?
IC50 [1]: < 5 nM; IC50 [2, 4]: < 3 nM; IC50 [2, 5]: < 50 nM; IC50 [3]: 10 to 50 nM

With `CC(C)C1=C2[C@H]3CC[C@@H]4[C@@]5(C)CC[C@H](OC(=O)[C@H]6C[C@@H](C(=O)O)C6(C)C)C(C)(C)[C@@H]5CC[C@@]4(C)[C@]3(C)CC[C@@]2(NC(=O)C(C)(C)NC(=O)c2csc(N)n2)CC1=O` [Example 55, (1R,3S)-3-((((3aR,5aR,5bR,7aR,9S,11aR,11bR,13aS)-3a-(2-(2-aminothiazole-4-carboxamido)-2-methylpropanamido)-1-isopropyl-5a,5b,8,8,11a-pentamethyl-2-oxo-3,3a,4,5,5a,5b,6,7,7a,8,9,10,11,11a,11b,12,13,13a-octadecahydro-2H-cyclopenta[a]chrysen-9-yl)oxy)carbonyl)-2,2-dimethylcyclobutane-1-carboxylic acid] as the molecule, how does the IC50 [1] read?
Its IC50 is > 10 nM.

And the IC50 [2, 4]?
The IC50 was 3.01 to 10 nM.

And the IC50 [2, 5]?
Its IC50 is 50 to 200 nM.

What about the IC50 [3] of the same molecule?
The IC50 was > 50 nM.

How did the IC50 [1] turn out when `Cc1nnc(-c2ccc(C(=O)NC(C)(C)C(=O)N[C@@]34CC[C@]5(C)[C@H](CC[C@@H]6[C@@]7(C)CC[C@H](OC(=O)[C@H]8C[C@@H](C(=O)O)C8(C)C)C(C)(C)[C@@H]7CC[C@]65C)C3=C(C(C)C)C(=O)C4)cc2)o1` [Example 56, (1R,3S)-3-((((3aR,5aR,5bR,7aR,9S,11aR,11bR,13aS)-1-isopropyl-5a,5b,8,8,11a-pentamethyl-3a-(2-methyl-2-(4-(5-methyl-1,3,4-oxadiazol-2-yl)benzamido)propanamido)-2-oxo-3,3a,4,5,5a,5b,6,7,7a,8,9,10,11,11a,11b,12,13,13a-octadecahydro-2H-cyclopenta[a]chrysen-9-yl)oxy)carbonyl)-2,2-dimethylcyclobutane-1-carboxylic acid] was run?
Its IC50 is 5.01 to 10 nM.

What about the IC50 [2, 4] of the same molecule?
The IC50 was < 3 nM.

And the IC50 [2, 5]?
The IC50 was < 50 nM.

What about the IC50 [3] of the same molecule?
Its IC50 is 10 to 50 nM.

For `CC(C)C1=C2[C@H]3CC[C@@H]4[C@@]5(C)CC[C@H](OC(=O)[C@H]6C[C@@H](C(=O)O)C6(C)C)C(C)(C)[C@@H]5CC[C@@]4(C)[C@]3(C)CC[C@@]2(NC(=O)C(C)(C)NC(=O)c2ccc(N3CCS(=O)(=O)CC3)cc2)CC1=O` [Example 57, (1R,3S)-3-((((3aR,5aR,5bR,7aR,9S,11aR,11bR,13aS)-3a-(2-(4-(1,1-dioxidothiomorpholino)benzamido)-2-methylpropanamido)-1-isopropyl-5a,5b,8,8,11a-pentamethyl-2-oxo-3,3a,4,5,5a,5b,6,7,7a,8,9,10,11,11a,11b,12,13,13a-octadecahydro-2H-cyclopenta[a]chrysen-9-yl)oxy)carbonyl)-2,2-dimethylcyclobutane-1-carboxylic acid], which IC50 [1] is on record?
The IC50 was 5.01 to 10 nM.

What about the IC50 [2, 4] of the same molecule?
The IC50 was < 3 nM.

What about the IC50 [2, 5] of the same molecule?
The IC50 was < 50 nM.

And the IC50 [3]?
The IC50 was 10 to 50 nM.

`CC(C)C1=C2[C@H]3CC[C@@H]4[C@@]5(C)CC[C@H](OC(=O)[C@H]6C[C@@H](C(=O)O)C6(C)C)C(C)(C)[C@@H]5CC[C@@]4(C)[C@]3(C)CC[C@@]2(NC(=O)C(C)(C)NC(=O)c2ccc(CN3CCS(=O)(=O)CC3)cc2)CC1=O` [Example 58, (1R,3S)-3-((((3aR,5aR,5bR,7aR,9S,11aR,11bR,13aS)-3a-(2-(4-((1,1-dioxidothiomorpholino)methyl)benzamido)-2-methylpropanamido)-1-isopropyl-5a,5b, 8,8,11a-pentamethyl-2-oxo-3,3a,4,5,5a,5b,6,7,7a,8,9,10,11,11a,11b,12,13,13a-octalecahydro-2H-cyclopenta[a]chrysen-9-yl)oxy)carbonyl)-2,2-dimethylcyclobutane-1-carboxylic acid] was tested. Which IC50 [1] did it give?
Its IC50 is 5.01 to 10 nM.

And the IC50 [2, 4]?
The IC50 was < 3 nM.

What about the IC50 [2, 5] of the same molecule?
Its IC50 is < 50 nM.

And the IC50 [3]?
Its IC50 is > 50 nM.

Which results are given for `Cc1ccc(C(=O)NC(C)(C)C(=O)N[C@@]23CC[C@]4(C)[C@H](CC[C@@H]5[C@@]6(C)CC[C@H](OC(=O)[C@H]7C[C@@H](C(=O)O)C7(C)C)C(C)(C)[C@@H]6CC[C@]54C)C2=C(C(C)C)C(=O)C3)cn1` [Example 61, (1R,3S)-3-((((3aR,5aR,5bR,7aR,9S,11aR,11bR,13aS)-1-isopropyl-5a,5b,8,8,11a-pentamethyl-3a-(2-methyl-2-(6-methylnicotinamido)propanamido)-2-oxo-3,3a,4,5,5a,5b,6,7,7a,8,9,10,11,11a,11b,12,13,13a-octadecahydro-2H-cyclopenta[a]chrysen-9-yl)oxy)carbonyl)-2,2-dimethylcyclobutane-1-carboxylic acid]?
IC50 [1]: < 5 nM; IC50 [2, 4]: < 3 nM; IC50 [2, 5]: < 50 nM; IC50 [3]: 10 to 50 nM

With `CC(C)C1=C2[C@H]3CC[C@@H]4[C@@]5(C)CC[C@H](OC(=O)[C@H]6C[C@@H](C(=O)O)C6(C)C)C(C)(C)[C@@H]5CC[C@@]4(C)[C@]3(C)CC[C@@]2(NC(=O)C(C)(C)NS(C)(=O)=O)CC1=O` [Example 63, sodium (1R,3S)-3-((((3aR,5aR,5bR,7aR,9S,11aR,11bR,13aS)-1-isopropyl-5a,5b,8,8,11a-pentamethyl-3a-(2-methyl-2-(methylsulfonamido)propanamido)-2-oxo-3,3a,4,5,5a,5b,6,7,7a,8,9,10,11,11a,11b,12,13,13a-octadecahydro-2H-cyclopenta[a]chrysen-9-yl)oxy)carbonyl)-2,2-dimethylcyclobutane-1-carboxylate] as the molecule, how does the IC50 [1] read?
The IC50 was > 10 nM.

And the IC50 [2, 4]?
The IC50 was < 3 nM.

What about the IC50 [2, 5] of the same molecule?
The IC50 was < 50 nM.

And the IC50 [3]?
Its IC50 is > 50 nM.

What does the source list for `CCOC(=O)NC(C)(C)C(=O)N[C@@]12CC[C@]3(C)[C@H](CC[C@@H]4[C@@]5(C)CC[C@H](OC(=O)[C@H]6C[C@@H](C(=O)O)C6(C)C)C(C)(C)[C@@H]5CC[C@]43C)C1=C(C(C)C)C(=O)C2` [Example 64]?
IC50 [1]: 5.01 to 10 nM; IC50 [2, 4]: < 3 nM; IC50 [2, 5]: < 50 nM; IC50 [3]: > 50 nM

`CC(C)C1=C2[C@H]3CC[C@@H]4[C@@]5(C)CC[C@H](OC(=O)[C@H]6C[C@@H](C(=O)O)C6(C)C)C(C)(C)[C@@H]5CC[C@@]4(C)[C@]3(C)CC[C@@]2(NC(=O)C(C)(C)NC(=O)c2ccc(Cl)cn2)CC1=O` [Example 70, (1R,3S)-3-((((3aR,5aR,5bR,7aR,9S,11aR,11bR,13aS)-3a-(2-(5-chloropicolinamido)-2-methylpropanamido)-1-isopropyl-5a,5b,8,8,11a-pentamethyl-2-oxo-3,3a,4,5,5a,5b,6,7,7a,8,9,10,11,11a,11b,12,13,13a-octadecahydro-2H-cyclopenta[a]chrysen-9-yl)oxy)carbonyl)-2,2-dimethylcyclobutane-1-carboxylic acid] was tested. Which IC50 [1] did it give?
The IC50 was < 5 nM.

And the IC50 [2, 4]?
Its IC50 is < 3 nM.

What about the IC50 [2, 5] of the same molecule?
The IC50 was < 50 nM.

And the IC50 [3]?
Its IC50 is < 10 nM.

How did the IC50 [1] turn out when `Cc1cccc(NC(=O)NC(C)(C)C(=O)N[C@@]23CC[C@]4(C)[C@H](CC[C@@H]5[C@@]6(C)CC[C@H](OC(=O)[C@H]7C[C@@H](C(=O)O)C7(C)C)C(C)(C)[C@@H]6CC[C@]54C)C2=C(C(C)C)C(=O)C3)n1` [Example 72, (1R,3S)-3-((((3aR,5aR,5bR,7aR,9S,11aR,11bR,13aS)-1-isopropyl-5a,5b,8,8,11a-pentamethyl-3a-(2-methyl-2-(3-(6-methylpyridin-2-yl)ureido)propanamido)-2-oxo-3,3a,4,5,5a,5b,6,7,7a,8,9,10,11,11a,11b,12,13,13a-octadecahydro-2H-cyclopenta[a]chrysen-9-yl)oxy)carbonyl)-2,2-dimethylcyclobutane-1-carboxylic acid] was run?
The IC50 was < 5 nM.

And the IC50 [2, 4]?
The IC50 was < 3 nM.

What about the IC50 [2, 5] of the same molecule?
Its IC50 is < 50 nM.

And the IC50 [3]?
The IC50 was > 50 nM.
